Assay results taken from patent publication US9850283B2, “Macrocyclic inhibitors of the PD-1/PD-L1 and CD80(B7-1)/PD-L1 protein/protein interactions” (BRISTOL-MYERS SQUIBB COMPANY, priority 2013, dated 2017).
Where two headings read alike, the source gives them in different places. Positions of bridges follow the written chain, without caps; N, C: chain ends. Non-standard residues stand in square brackets, D forms with d. Residues, ends and D or L forms follow the SMILES beside them. ξ: configuration not given here. Bip = N[C@@H](Cc1ccc(-c2ccccc2)cc1)C(=O)O; Phe(4-F) = N[C@@H](Cc1ccc(F)cc1)C(=O)O; NMeF = CN[C@@H](Cc1ccccc1)C(=O)O; NMeNle = CCCC[C@H](NC)C(=O)O; NMeV = CN[C@H](C(=O)O)C(C)C; dNle = CCCC[C@@H](N)C(=O)O; NMeA = CN[C@@H](C)C(=O)O; ξV = CC(C)C(N)C(=O)O; ξP = O=C(O)C1CCCN1; Sar = CNCC(=O)O

How the values were obtained:
Human PD-L1/PD-1 = target: T1, Human PD-L1/PD-1 (Homo sapiens, UniProt Q9NZQ7); test: HTRF PD-1-Ig/PD-L1-His binding assay (human PD-L1); details: read-out: HTRF Human PD-L1/PD-1 Binding Assay IC50
T1 construct: made in house; host or cells: HEK293T
Outline: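 The time-resolved fluorescence signal comes from Eu-cryptate anti-Ig (1 nM) and APC anti-His (20 nM) antibodies bound to a PD-1-Ig/PD-L1-His complex. Both partners lack transmembrane regions.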

Hu PD-L1/PD-1 = Hu PD-L1/PD-1 (Homo sapiens, UniProt Q9NZQ7); test: Cell binding assay Hu PD-L1/PD-1 (Tables 11-13, cell line not given); format: cell-based
Procedure: The ability of the macrocyclic peptides of the present disclosure to bind to Jurkat, mouse B cell line (LK35.2), and a human lung adenocarcinoma cell line (L2987) was investigated. Jurkat-PD-1 Cell Binding Assay. Phycoerythrin (PE) was covalently linked to the Ig epitope tag of human PD-L1-Ig and fluorescently-labeled PD-L1-Ig was used for binding studies with a Jurkat cell line over-expressing human PD-1 (Jurkat-PD-1). […] Cells were washed 3× in dPBS. Cells were resuspended in 200 μl of dPBS and binding was measured by flow cytometry. LK35.2-hPD-L1 Cell Binding Assay. Phycoerythrin (PE) was covalently linked to the Ig eptitope tag of human PD-1-Ig and fluorescently-labeled PD-1-Ig was used for binding studies with a mouse B cell line (LK35.2) stably over-expressing human PD-L1 (LK35.2-hPD-L1). Briefly, […] LK35.2-hPD-L1 cells were pre-incubated with inhibitor for 15 m in a 30 μl volume of RPMI supplemented with 2% fetal calf serum. 20 μl of PE-labeled PD-1-Ig (2 nM final), diluted in RPMI supplemented with 2% fetal calf serum, was dispensed on top of cells and inhibitor and binding was allowed to take place for 1 h at room temperature. Cells were washed 3× in dPBS. Cells were resuspended in 200 μl of dPBS and binding was measured by flow cytometry. L2987 Cellomics Cell Binding Assay. Phycoerythrin (PE) was covalently linked to the Ig eptitope tag of human PD-1-Ig and fluorescently-labeled PD-1-Ig was used for binding studies with a human lung adenocarcinoma cell line (L2987) which naturally expresses PD-L1. […] The following day, inhibitors were diluted in serum-free DMEM and 25 μl was dispensed on top of cells. […] Samples were incubated for 1 h at 37° C. followed by 2 washes in dPBS and fixation for 30 m with 4% paraformaldehyde. Samples were further washed 2× in dPBS. Hoechst (final 1 μg/ml) was added to final wash to stain nuclei. Plates were processed using a Cellomics […]®.

[1] = Table 8, Compound No. 1 variant macrocyclic peptides
[2] = Table 13, Compound No. 71 series

Sequence of Hu PD-L1/PD-1 (Q9NZQ7 19-290): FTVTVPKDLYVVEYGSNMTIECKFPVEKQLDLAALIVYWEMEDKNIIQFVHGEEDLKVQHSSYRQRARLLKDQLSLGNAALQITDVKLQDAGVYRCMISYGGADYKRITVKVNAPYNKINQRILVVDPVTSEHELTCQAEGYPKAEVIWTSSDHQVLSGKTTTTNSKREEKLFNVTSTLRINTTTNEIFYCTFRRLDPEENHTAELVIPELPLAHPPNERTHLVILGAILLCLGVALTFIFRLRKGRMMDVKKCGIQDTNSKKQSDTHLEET
T1 sequence (Q9NZQ7 with tags, fused parts or gaps): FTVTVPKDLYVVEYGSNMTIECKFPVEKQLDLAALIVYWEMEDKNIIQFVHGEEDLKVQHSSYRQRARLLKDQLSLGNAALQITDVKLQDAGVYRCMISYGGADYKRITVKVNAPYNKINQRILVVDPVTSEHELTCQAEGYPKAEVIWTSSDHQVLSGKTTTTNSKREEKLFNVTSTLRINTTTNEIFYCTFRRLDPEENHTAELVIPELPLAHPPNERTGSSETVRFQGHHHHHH

| SMILES | IC50 (Hu PD-L1/PD-1) | further results |
| --- | --- | --- |
| CCCC[C@H]1C(=O)N(C)[C@@H](CCCC)C(=O)N[C@@H](CC(C)C)C(=O)N[C@H](C(=O)NCC(N)=O)CSCC(=O)N[C@@H](Cc2ccccc2)C(=O)N(C)[C@@H](C)C(=O)N[C@@H](CC(N)=O)C(=O)N2CCC[C@H]2C(=O)N[C@@H](Cc2c[nH]cn2)C(=O)N[C@@H](CC(C)C)C(=O)N[C@@H](CO)C(=O)N[C@@H](Cc2c[nH]c3ccccc23)C(=O)N[C@@H](CCCNC(=N)N)C(=O)N[C@@H](Cc2c[nH]c3ccccc23)C(=O)N1C [Compound No. 4] ({CH2CO}-F[NMeA]NPHLSWRW[NMeNle][NMeNle]LCG-NH2; thioether N-14) | – | IC50 (Human PD-L1/PD-1; Table 6): 15 nM; IC50 (Hu PD-L1/PD-1; Table 11): 15 nM |
| CCCC[C@H]1C(=O)N(C)[C@@H](CCCC)C(=O)N[C@@H](CCCNC(=N)N)C(=O)N[C@H](C(=O)NCC(N)=O)CSCC(=O)N[C@@H](Cc2ccccc2)C(=O)N(C)[C@@H](C(C)C)C(=O)N[C@@H](CC(N)=O)C(=O)N2CCC[C@H]2C(=O)N[C@@H](Cc2c[nH]cn2)C(=O)N[C@@H](CC(C)C)C(=O)N(C)CC(=O)N[C@@H](Cc2c[nH]c3ccccc23)C(=O)N[C@@H](CO)C(=O)N[C@@H](Cc2c[nH]c3ccccc23)C(=O)N1C [Compound No. 41] ({CH2CO}-F[NMeV]NPHL[Sar]WSW[NMeNle][NMeNle]RCG-NH2; thioether N-14) | > 10000 nM | – |
| CCCC[C@H]1C(=O)N(C)[C@@H](CCCC)C(=O)N[C@@H](CCCNC(=N)N)C(=O)N[C@H](C(=O)NCC(N)=O)CSCC(=O)N[C@@H](Cc2ccccc2)C(=O)N(C)[C@@H](C)C(=O)N[C@@H](CC(N)=O)C(=O)N2CCC[C@H]2C(=O)N[C@@H](Cc2cnc[nH]2)C(=O)N[C@@H](CC(C)C)C(=O)N(C)CC(=O)N[C@@H](Cc2c[nH]c3ccccc23)C(=O)N[C@@H](CO)C(=O)N[C@@H](CC(C)C)C(=O)N1C [Compound No. 63] ({CH2CO}-F[NMeA]NPHL[Sar]WSL[NMeNle][NMeNle]RCG-NH2; thioether N-14) | > 10000 nM | – |
| CCCC[C@H]1NC(=O)[C@H](Cc2c[nH]c3ccccc23)NC(=O)[C@H](CO)NC(=O)[C@H](Cc2c[nH]c3ccccc23)NC(=O)CN(C)C(=O)[C@H](CC(C)C)NC(=O)[C@H](Cc2cnc[nH]2)NC(=O)[C@@H]2CCCN2C(=O)[C@H](CC(N)=O)NC(=O)[C@H](C)N(C)C(=O)[C@H](Cc2ccccc2)NC(=O)CSC[C@@H](C(=O)NCC(N)=O)NC(=O)[C@H](CCCNC(=N)N)NC(=O)[C@H](CCCC)N(C)C1=O [Compound No. 70] ({CH2CO}-F[NMeA]NPHL[Sar]WSW[dNle][NMeNle]RCG-NH2; thioether N-14) | > 10000 nM | – |
| CCCC[C@H]1C(=O)N(C)CC(=O)N[C@@H](CC(=O)O)C(=O)N[C@@H](C(C)C)C(=O)N(C)[C@@H](Cc2ccccc2)C(=O)N[C@@H](Cc2ccc(O)cc2)C(=O)N(C)CC(=O)N[C@@H](Cc2c[nH]c3ccccc23)C(=O)N[C@@H](Cc2ccc(O)cc2)C(=O)N[C@@H](CC(C)C)C(=O)N[C@H](C(=O)NCC(N)=O)CSCC(=O)N[C@@H](C)C(=O)N(C)[C@@H](Cc2ccccc2)C(=O)N1C [Compound No. 72] (HELM PEPTIDE1{[O=C(C[*:3])[*:2]].A.[meF].[CCCC[C@@H](C(=O)[*:2])N(C)[*:1]].[Sar].D.V.[meF].Y.[Sar].W.Y.L.C.G.[am]}$PEPTIDE1,PEPTIDE1,1:R3-14:R3$$$V2.0) | – | IC50 (Hu PD-L1/PD-1; [2]): > 10000 nM |
| CCCC[C@H]1C(=O)N(C)CC(=O)N[C@@H](CC(=O)O)C(=O)NC(C(C)C)C(=O)N(C)[C@@H](Cc2ccccc2)C(=O)N[C@@H](Cc2ccc(O)cc2)C(=O)N(C)CC(=O)N[C@@H](Cc2c[nH]c3ccccc23)C(=O)N[C@@H](C)C(=O)N[C@@H](CC(C)C)C(=O)N[C@H](C(=O)NCC(N)=O)CSCC(=O)N[C@@H](Cc2ccccc2)C(=O)N(C)[C@@H](Cc2ccccc2)C(=O)N1C (some centres unmarked) [Compound No. 86] ({CH2CO}-F[NMeF][NMeNle][Sar]D[ξV][NMeF]Y[Sar]WALCG-NH2; thioether N-13) | – | IC50 (Hu PD-L1/PD-1; [2]): 7250 nM |

Further lines, with some results ahead:

| IC50 (Hu PD-L1/PD-1) | SMILES | further results |
| --- | --- | --- |
| > 10000 nM | CCCC[C@H]1C(=O)N(C)[C@@H](CCCC)C(=O)N[C@@H](CCCNC(=N)N)C(=O)N[C@H](C(=O)NCC(N)=O)CSCC(=O)N[C@@H](C)C(=O)N(C)[C@@H](C)C(=O)N[C@@H](CC(N)=O)C(=O)N2CCCC2C(=O)N[C@@H](Cc2cnc[nH]2)C(=O)N[C@@H](CC(C)C)C(=O)N(C)CC(=O)N[C@@H](Cc2c[nH]c3ccccc23)C(=O)N[C@@H](CO)C(=O)N[C@@H](Cc2c[nH]c3ccccc23)C(=O)N1C (some centres unmarked) [Compound No. 5] ({CH2CO}-A[NMeA]N[ξP]HL[Sar]WSW[NMeNle][NMeNle]RCG-NH2; thioether N-14) | – |
| 71 nM | CCCC[C@H]1C(=O)N(C)[C@@H](CCCC)C(=O)N[C@@H](CCCNC(=N)N)C(=O)N[C@H](C(=O)NCC(N)=O)CSCC(=O)N[C@@H](Cc2ccccc2)C(=O)N(C)[C@@H](C)C(=O)N[C@@H](CC(N)=O)C(=O)N[C@@H](C)C(=O)N[C@@H](Cc2cnc[nH]2)C(=O)N[C@@H](CC(C)C)C(=O)N(C)CC(=O)N[C@@H](Cc2c[nH]c3ccccc23)C(=O)N[C@@H](CO)C(=O)N[C@@H](Cc2c[nH]c3ccccc23)C(=O)N1C [Compound No. 9] ({CH2CO}-F[NMeA]NAHL[Sar]WSW[NMeNle][NMeNle]RCG-NH2; thioether N-14) | – |
| 82 nM | CCCC[C@H]1C(=O)N(C)[C@@H](CCCC)C(=O)N[C@@H](CCCNC(=N)N)C(=O)N[C@H](C(=O)NCC(N)=O)CSCC(=O)N[C@@H](Cc2ccccc2)C(=O)N(C)[C@@H](C)C(=O)N[C@@H](CC(N)=O)C(=O)N2CCCC2C(=O)N[C@@H](C)C(=O)N[C@@H](CC(C)C)C(=O)N(C)CC(=O)N[C@@H](Cc2c[nH]c3ccccc23)C(=O)N[C@@H](CO)C(=O)N[C@@H](Cc2c[nH]c3ccccc23)C(=O)N1C (some centres unmarked) [Compound No. 10] ({CH2CO}-F[NMeA]N[ξP]AL[Sar]WSW[NMeNle][NMeNle]RCG-NH2; thioether N-14) | IC50 (Human PD-L1/PD-1; [1]): 16 nM |
| 35 nM | CCCC[C@H]1C(=O)N(C)[C@@H](CCCC)C(=O)N[C@@H](CCCNC(=N)N)C(=O)N[C@H](C(=O)NCC(N)=O)CSCC(=O)N[C@@H](Cc2ccccc2)C(=O)N(C)[C@@H](C)C(=O)N[C@@H](CC(N)=O)C(=O)N2CCCC2C(=O)N[C@@H](Cc2cnc[nH]2)C(=O)N[C@@H](CC(C)C)C(=O)N(C)[C@@H](C)C(=O)N[C@@H](Cc2c[nH]c3ccccc23)C(=O)N[C@@H](CO)C(=O)N[C@@H](Cc2c[nH]c3ccccc23)C(=O)N1C (some centres unmarked) [Compound No. 13] ({CH2CO}-F[NMeA]N[ξP]HL[NMeA]WSW[NMeNle][NMeNle]RCG-NH2; thioether N-14) | IC50 (Human PD-L1/PD-1; [1]): 16 nM |
| 13 nM | CCCC[C@H]1C(=O)N(C)[C@@H](CCCC)C(=O)N[C@@H](CCCNC(=N)N)C(=O)N[C@H](C(=O)NCC(N)=O)CSCC(=O)N[C@@H](Cc2ccccc2)C(=O)N(C)[C@@H](C)C(=O)N[C@@H](CC(N)=O)C(=O)N2CCCC2C(=O)N[C@@H](Cc2cnc[nH]2)C(=O)N[C@@H](CC(C)C)C(=O)N(C)CC(=O)N[C@@H](Cc2c[nH]c3ccccc23)C(=O)N[C@@H](C)C(=O)N[C@@H](Cc2c[nH]c3ccccc23)C(=O)N1C (some centres unmarked) [Compound No. 16] ({CH2CO}-F[NMeA]N[ξP]HL[Sar]WAW[NMeNle][NMeNle]RCG-NH2; thioether N-14) | IC50 (Human PD-L1/PD-1; [1]): 5 nM |
| 82 nM | CCCC[C@H]1C(=O)N(C)[C@@H](CCCC)C(=O)N[C@@H](CCCNC(=N)N)C(=O)N[C@H](C(=O)NCC(N)=O)CSCC(=O)N[C@@H](Cc2ccc(-c3ccccc3)cc2)C(=O)N(C)[C@@H](C)C(=O)N[C@@H](CC(N)=O)C(=O)N2CCC[C@H]2C(=O)N[C@@H](Cc2cnc[nH]2)C(=O)N[C@@H](CC(C)C)C(=O)N(C)CC(=O)N[C@@H](Cc2c[nH]c3ccccc23)C(=O)N[C@@H](CO)C(=O)N[C@@H](Cc2c[nH]c3ccccc23)C(=O)N1C [Compound No. 28] ({CH2CO}-[Bip][NMeA]NPHL[Sar]WSW[NMeNle][NMeNle]RCG-NH2; thioether N-14) | – |
| 25 nM | CCCC[C@H]1C(=O)N(C)[C@@H](CCCC)C(=O)N[C@@H](CCCNC(=N)N)C(=O)N[C@@H](C(=O)NCC(N)=O)CSCC(=O)N[C@@H](Cc2ccc(F)cc2)C(=O)N(C)[C@@H](C)C(=O)N[C@@H](CC(N)=O)C(=O)N2CCC[C@H]2C(=O)N[C@@H](Cc2cnc[nH]2)C(=O)N[C@@H](CC(C)C)C(=O)N(C)CC(=O)N[C@@H](Cc2c[nH]c3ccccc23)C(=O)N[C@@H](CO)C(=O)N[C@@H](Cc2c[nH]c3ccccc23)C(=O)N1C [Compound No. 32] ({CH2CO}-[Phe(4-F)][NMeA]NPHL[Sar]WSW[NMeNle][NMeNle]R[dC]G-NH2; thioether N-14) | – |
